Measurements: US9126999B2, “Tetrahydropyrazolopyrimidine compounds” (EISAI R&D MANAGEMENT CO., LTD., priority 2012, dated 2015)
Where “and” joins values, the source holds several entries; their conditions need not be identical. Equal entries are not always repeated. Where two headings read alike, the source gives them in different places.

Biological target: T1, Mouse TLR7 (Mus musculus, UniProt P58681)
T1 construct: endogenous in cells; host or cells: female BALB/c mice, in vivo
T1 sequence (P58681 27-1050): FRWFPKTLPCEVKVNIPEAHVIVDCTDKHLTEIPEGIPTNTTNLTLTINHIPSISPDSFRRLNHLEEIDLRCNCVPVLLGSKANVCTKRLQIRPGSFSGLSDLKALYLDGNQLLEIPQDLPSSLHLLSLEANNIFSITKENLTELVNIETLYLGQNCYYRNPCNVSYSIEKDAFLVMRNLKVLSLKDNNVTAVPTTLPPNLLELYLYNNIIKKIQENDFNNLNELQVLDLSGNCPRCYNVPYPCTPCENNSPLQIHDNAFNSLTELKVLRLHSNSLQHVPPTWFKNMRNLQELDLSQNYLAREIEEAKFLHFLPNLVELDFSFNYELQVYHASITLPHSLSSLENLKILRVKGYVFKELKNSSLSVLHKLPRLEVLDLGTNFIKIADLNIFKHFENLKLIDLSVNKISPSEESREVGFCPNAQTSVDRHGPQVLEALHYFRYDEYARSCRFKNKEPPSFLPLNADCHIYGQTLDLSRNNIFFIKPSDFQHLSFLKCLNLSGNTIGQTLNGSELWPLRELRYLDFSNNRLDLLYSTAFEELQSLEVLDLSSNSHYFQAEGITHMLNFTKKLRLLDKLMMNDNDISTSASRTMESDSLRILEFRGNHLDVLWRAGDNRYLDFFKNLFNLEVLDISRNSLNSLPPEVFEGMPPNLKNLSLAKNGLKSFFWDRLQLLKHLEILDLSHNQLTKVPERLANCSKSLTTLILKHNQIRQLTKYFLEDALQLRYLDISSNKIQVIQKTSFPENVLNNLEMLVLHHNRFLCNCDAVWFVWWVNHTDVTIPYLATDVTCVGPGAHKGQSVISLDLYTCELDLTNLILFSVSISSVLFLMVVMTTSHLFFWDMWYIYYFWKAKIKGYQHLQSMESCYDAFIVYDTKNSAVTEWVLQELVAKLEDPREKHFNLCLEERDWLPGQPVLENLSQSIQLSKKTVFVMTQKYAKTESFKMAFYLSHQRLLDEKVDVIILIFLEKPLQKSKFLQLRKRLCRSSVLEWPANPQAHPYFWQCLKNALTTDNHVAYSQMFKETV
Experiment: Mouse spleen cell-based assay, R848 stimulus, IL-6 ELISA
Protocol: Spleens were harvested from female BALB/c mice (Jackson Labs, Bar Harbor, Me.) euthanized by CO2. A single cell suspension was obtained by passing spleens through a 40 μm nylon cell strainer. Cells were washed twice with 50 ml PBS (Mediatech, Inc., Manassas, Va.) and red blood cells were lysed in 5 ml RBC Lysis buffer (eBioscience, Inc., San Diego, Calif.) for 5 minutes at room temperature. Cells were washed twice more in PBS and finally resuspended in supplemented RPMI-1640 at 2.5×10^6 cells/ml. Cells were plated at 100 μl/well (2.5×10^5 cells/well) in 96-well tissue culture treated plates (Falcon). Serial dilutions of compounds solubilized in 100% DMSO were added in triplicate to cells to yield a final concentration of 0.1% DMSO. Cells were incubated with compound for 30 minutes at 37° C., 5% CO2 before adding 100 μl/well of 740 nM R848 (Resiquimod; GLSynthesis, Worcester, Mass.) in complete media for a final concentration of 370 nM R848. Cells were incubated for 20 hours at 37° C., 5% CO2. Culture supernatants were collected, and levels of IL-6 were assessed by standard ELISA procedure according to the manufacturer's recommended protocol (BD Biosciences, Inc., San Diego, Calif.).

[1] = Mouse Splenocyte IL-6 Inhibition (R848 Ligand), read-out: Mouse Splenocyte IC50

SMILES	IC50 [1]	IC50 (Mu Spleen, ligand R848, analyte IL-6, read-out: IC50) [nM]
COc1ccc([C@@H]2C[C@H](C(F)(F)F)n3nc(-c4ccncc4)cc3N2)cc1OC [ER-885454]	680 nM	
COc1ccc([C@@H]2C[C@H](C(F)(F)F)n3nc(-c4ccc(C(=O)N5CCNCC5)cc4)cc3N2)cc1OC [ER-892887, (4-((5S,7R)-5-(3,4-dimethoxyphenyl)-7-(trifluoromethyl)-4,5,6,7-tetrahydropyrazolo[1,5-a]pyrimidin-2-yl)phenyl)(piperazin-1-yl)methanone]	70 nM and 330 nM	70
Cc1nn(C)cc1[C@@H]1C[C@H](C(F)(F)F)n2nc(-c3ccc(NC(N)=O)cc3)cc2N1 [ER-894595]	3110 nM	
Cc1nn(C)cc1[C@H]1C[C@@H](C(F)(F)F)n2nc(-c3ccc(NC(N)=O)cc3)cc2N1 [ER-894596]	3020 nM	
